What all share (type): cell-based
Test [1] concerns the target human GcgR (Homo sapiens, UniProt P47871). Description: Functional cAMP activity in the presence of 1% HSA. To be noted: read-out: cAMP Rel EC50, hGcgR.
The target of test [2] is hGcgR (Homo sapiens, UniProt P47871). As to the kind of experiment: Functional cAMP activation in the presence of 0.1% casein (no HSA). To be noted: read-out: Relative cAMP EC50, hGcgR.
In test [3] the target is T1, hGLP-1R (Homo sapiens, UniProt P43220). The description is as above. The settings on record: read-out: Relative cAMP EC50, hGLP-1R.
In test [4] the target is T2, hGIPR (Homo sapiens, UniProt P48546).
T2 sequence (P48546 22-466): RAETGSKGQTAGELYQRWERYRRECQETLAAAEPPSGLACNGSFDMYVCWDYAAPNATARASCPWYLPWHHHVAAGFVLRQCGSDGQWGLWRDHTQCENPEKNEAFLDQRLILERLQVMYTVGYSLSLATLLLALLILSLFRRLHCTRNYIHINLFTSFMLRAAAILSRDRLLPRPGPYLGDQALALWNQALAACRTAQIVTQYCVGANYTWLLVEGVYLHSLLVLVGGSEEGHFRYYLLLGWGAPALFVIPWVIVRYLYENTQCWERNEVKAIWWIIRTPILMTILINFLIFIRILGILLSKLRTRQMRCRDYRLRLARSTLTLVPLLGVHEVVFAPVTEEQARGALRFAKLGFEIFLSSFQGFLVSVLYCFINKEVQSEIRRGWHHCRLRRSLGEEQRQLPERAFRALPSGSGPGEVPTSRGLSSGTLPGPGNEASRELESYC
The test is described as above. To be noted: read-out: Relative cAMP EC50, hGIPR.

Test [5] addresses T1, hGLP-1R. Description: Functional cAMP activity in the presence of 1% HSA. To be noted: read-out: cAMP Rel EC50, hGLP-1R.
The target of test [6] is T2, hGIPR. As to the kind of experiment: Functional cAMP activity in the presence of 1% HSA. The settings on record: read-out: cAMP Rel EC50, hGIPR.
[7] abbreviates: 0.1% casein, no HSA, geometric mean.
Setting [8] is: in the presence of 0.1% casein (no HSA), geometric mean.

Like-named read-outs stand apart in the source and are kept apart here. Starred links: 1 amine or outer side, 2 acyl side, 3 side chain; linkers in the order of their positions; H or OH if unused. Non-standard residues stand in square brackets, D forms with d. Residues, ends and D or L forms follow the SMILES beside them. Groups on a side chain read outwards from the residue. No end group written: not given here. *: point of attachment. C18 diacid = O=C(O)CCCCCCCCCCCCCCCCC(=O)*; αMePhe(2-F) = C[C@](N)(Cc1ccccc1F)C(=O)O; γGlu = O=C(O)[C@H](CCC(=O)[*:2])N[*:1]; αMe4Pal = C[C@](N)(Cc1ccncc1)C(=O)O; αMeY = C[C@](N)(Cc1ccc(O)cc1)C(=O)O; 4Pal = N[C@@H](Cc1ccncc1)C(=O)O; αMeL = CC(C)C[C@](C)(N)C(=O)O; αMeS = C[C@](N)(CO)C(=O)O; Orn = NCCC[C@H](N)C(=O)O; AEEA = NCCOCCOCC(=O)O; Aib = CC(C)(N)C(=O)O
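Wherever Relative cAMP EC50, hGIPR is given: intracellular cAMP rise after 30 min at 37 °C read by HTRF against a standard curve, scaled between buffer alone (0%) and top control ligand concentration (100%), four-parameter fit.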
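Wherever Relative cAMP EC50, hGLP-1R is given: intracellular cAMP rise after 30 min at 37 °C read by HTRF, normalized between buffer only (0%) and maximal control ligand (100%), four-parameter variable-slope fit.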
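Wherever Relative cAMP EC50, hGcgR is given: intracellular cAMP rise after 30 min at 37 °C, read by HTRF against a cAMP standard curve, scaled from buffer only (0%) to maximal control ligand response (100%).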

T1 sequence (P43220 24-463): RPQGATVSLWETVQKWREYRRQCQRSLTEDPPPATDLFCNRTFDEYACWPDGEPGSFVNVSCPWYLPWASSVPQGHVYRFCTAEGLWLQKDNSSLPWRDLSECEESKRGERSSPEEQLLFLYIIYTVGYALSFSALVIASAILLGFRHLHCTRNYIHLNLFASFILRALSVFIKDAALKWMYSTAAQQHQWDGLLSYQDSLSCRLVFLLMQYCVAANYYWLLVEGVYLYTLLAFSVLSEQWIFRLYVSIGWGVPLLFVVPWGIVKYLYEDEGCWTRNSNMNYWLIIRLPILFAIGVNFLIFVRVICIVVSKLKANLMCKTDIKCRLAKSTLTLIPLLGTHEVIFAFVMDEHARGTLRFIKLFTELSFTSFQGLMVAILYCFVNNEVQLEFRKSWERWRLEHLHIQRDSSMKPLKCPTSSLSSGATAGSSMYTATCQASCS
Sequence of hGcgR (P47871 26-477): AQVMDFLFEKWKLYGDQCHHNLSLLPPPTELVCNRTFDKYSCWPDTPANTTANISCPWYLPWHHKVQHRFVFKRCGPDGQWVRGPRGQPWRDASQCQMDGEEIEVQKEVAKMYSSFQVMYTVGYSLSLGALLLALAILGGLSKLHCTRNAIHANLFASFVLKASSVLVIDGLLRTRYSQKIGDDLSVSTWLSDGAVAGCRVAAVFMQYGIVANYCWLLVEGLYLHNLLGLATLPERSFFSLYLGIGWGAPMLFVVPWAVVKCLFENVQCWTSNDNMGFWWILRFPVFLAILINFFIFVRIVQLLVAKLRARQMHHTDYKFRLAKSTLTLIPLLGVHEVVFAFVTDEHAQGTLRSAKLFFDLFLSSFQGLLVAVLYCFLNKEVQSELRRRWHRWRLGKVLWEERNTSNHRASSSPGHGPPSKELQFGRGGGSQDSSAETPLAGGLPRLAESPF
Sequence of human GcgR (P47871 26-477): as above

As for `CC[C@H](C)[C@H](NC(=O)[C@H](CC(C)C)NC(=O)[C@](C)(Cc1ccc(O)cc1)NC(=O)[C@@H](CCC(=O)O)NC(=O)[C@@H](NC(=O)[C@H](Cc1ccccc1)NC(=O)[C@H](CCC(=O)O)NC(=O)[C@](C)(Cc1ccncc1)NC(=O)[C@H](CCC(N)=O)NC(=O)[C@H](C)NC(=O)[C@H](CCCCNC(=O)COCCOCCNC(=O)COCCOCCNC(=O)CC[C@H](NC(=O)CCCCCCCCCCCCCCCCC(=O)O)C(=O)O)NC(=O)[C@H](CCCN)NC(=O)[C@H](CC(=O)O)NC(=O)[C@H](CC(C)C)NC(=O)[C@](C)(CC(C)C)NC(=O)[C@@H](NC(=O)[C@](C)(CO)NC(=O)[C@H](Cc1ccncc1)NC(=O)[C@H](CC(=O)O)NC(=O)[C@H](CO)NC(=O)[C@@H](NC(=O)[C@](C)(Cc1ccccc1F)NC(=O)[C@@H](NC(=O)CNC(=O)[C@H](CCC(N)=O)NC(=O)C(C)(C)NC(=O)[C@@H](N)Cc1ccc(O)cc1)[C@@H](C)O)[C@@H](C)O)[C@@H](C)CC)[C@@H](C)CC)C(=O)N[C@@H](CCC(=O)O)C(=O)NCC(=O)NCC(=O)N1CCC[C@H]1C(=O)N[C@@H](CO)C(=O)N[C@@H](CO)C(=O)NCC(=O)N[C@@H](C)C(=O)N1CCC[C@H]1C(=O)N1CCC[C@H]1C(=O)N1CCC[C@H]1C(=O)N[C@@H](CO)C(=O)NCC(=O)N[C@@H](CO)C(N)=O` [Example 1207], the EC50 came out at 470 nM in test [1]; 7.71 nM in test [2] (setting [7]); 0.299 nM in test [3] (setting [7]); 0.00647 nM in test [4] (setting [7]); 39.8 nM in test [5]; 0.633 nM in test [6].

For `CC[C@H](C)[C@H](NC(=O)[C@H](CC(C)C)NC(=O)[C@H](Cc1ccc(O)cc1)NC(=O)[C@@H](CCC(=O)O)NC(=O)[C@@H](NC(=O)[C@H](Cc1ccccc1)NC(=O)[C@H](CC(N)=O)NC(=O)C(C)(C)NC(=O)[C@H](CCC(N)=O)NC(=O)[C@H](C)NC(=O)[C@H](CCCCNC(=O)CC[C@H](NC(=O)CC[C@H](NC(=O)CCCCCCCCCCCCCCCCC(=O)O)C(=O)O)C(=O)O)NC(=O)[C@H](CCCN)NC(=O)[C@H](CC(=O)O)NC(=O)[C@H](CC(C)C)NC(=O)[C@](C)(CC(C)C)NC(=O)[C@@H](NC(=O)[C@](C)(CO)NC(=O)[C@H](Cc1ccncc1)NC(=O)[C@H](CC(=O)O)NC(=O)[C@H](CO)NC(=O)[C@@H](NC(=O)[C@](C)(Cc1ccccc1F)NC(=O)[C@@H](NC(=O)CNC(=O)[C@H](CCC(N)=O)NC(=O)C(C)(C)NC(=O)[C@@H](N)Cc1ccc(O)cc1)[C@@H](C)O)[C@@H](C)O)[C@@H](C)CC)[C@@H](C)CC)C(=O)N[C@@H](CCC(=O)O)C(=O)NCC(=O)NCC(=O)N1CCC[C@H]1C(=O)N[C@@H](CO)C(=O)N[C@@H](CO)C(=O)NCC(=O)N[C@@H](CCC(=O)O)C(=O)N1CCC[C@H]1C(=O)N1CCC[C@H]1C(=O)N1CCC[C@H]1C(=O)N[C@@H](CCC(=O)O)C(N)=O` [Example 449] (H-Y[Aib]QGT[αMePhe(2-F)]TSD[4Pal][αMeS]I[αMeL]LD[Orn]K([γGlu-γGlu-C18 diacid])AQ[Aib]NFI[dE]YLIEGGPSSGEPPPE-NH2), the EC50 came to 424 nM in test [1]; 11.5 nM in test [2]; 0.568 nM in test [3]; 0.0205 nM in test [4]; 18.9 nM in test [5]; 1.66 nM in test [6].

Consider “H-Y[Aib]QGTFTSD[4Pal]SQ[αMeL]LDKK([γGlu-γGlu-C18 diacid])AQ[αMe4Pal]AFIEWLIEGGPSSGAPPPSGS-NH2 [Example 872]”, for which the EC50 in test [1] stood at 1890 nM; in test [2] (setting [8]), 4.18 nM; in test [3] (setting [8]), 1.01 nM; in test [4] (setting [8]), 0.205 nM; in test [5] it was 287 nM; in test [6], 30.1 nM.

Regarding “H-Y[Aib]QGT[αMePhe(2-F)]TSD[4Pal][αMeS]I[αMeL]LD[Orn]K([γGlu-γGlu-C18 diacid])AQ[Aib][Orn]FI[dE][αMeY]LQEGGPSSGEPPPEGEEE-NH2 [Example 588]”, the half-maximal effective concentration (EC50) in test [1] came out at 259 nM; in test [2], 4.72 nM; in test [3], 0.613 nM; in test [4], 0.0777 nM; in test [5] it was 34.1 nM; in test [6] it was 2.86 nM.

For the compound “H-Y[Aib]QGTFTSDFS[Orn][αMeL]LDKK([AEEA-γGlu-C18 diacid])AQ[Aib]AFIE[αMeY]LIEGGPSSGAPPPSGS-NH2 [Example 839]”, the EC50 in test [1] was determined as 1110 nM; in test [2] (setting [8]), 5.05 nM; in test [3] (setting [8]), 0.469 nM; in test [4] (setting [8]), 0.221 nM; in test [5] it was 60.6 nM; in test [6], 21.9 nM.

As for `CC[C@H](C)[C@H](NC(=O)[C@H](Cc1ccccc1)NC(=O)[C@H](C)NC(=O)C(C)(C)NC(=O)[C@H](CCC(N)=O)NC(=O)[C@H](C)NC(=O)[C@H](CCCCNC(=O)COCCOCCNC(=O)CC[C@H](NC(=O)CCCCCCCCCCCCCCCCC(=O)O)C(=O)O)NC(=O)[C@H](CCCCN)NC(=O)[C@H](CC(=O)O)NC(=O)[C@H](CC(C)C)NC(=O)[C@](C)(CC(C)C)NC(=O)[C@@H](NC(=O)[C@H](CO)NC(=O)[C@H](Cc1ccncc1)NC(=O)[C@H](CC(=O)O)NC(=O)[C@H](CO)NC(=O)[C@@H](NC(=O)[C@](C)(Cc1ccccc1F)NC(=O)[C@@H](NC(=O)CNC(=O)[C@H](CCC(N)=O)NC(=O)C(C)(C)NC(=O)[C@@H](N)Cc1ccc(O)cc1)[C@@H](C)O)[C@@H](C)O)[C@@H](C)CC)C(=O)N[C@@H](CCC(=O)O)C(=O)N[C@@H](Cc1ccc(O)cc1)C(=O)N[C@@H](CC(C)C)C(=O)N[C@@H](CCC(=O)O)C(=O)N[C@@H](CCC(=O)O)C(=O)NCC(=O)NCC(=O)N1CCC[C@H]1C(=O)N[C@@H](CO)C(=O)N[C@@H](CO)C(=O)NCC(=O)N[C@@H](C)C(=O)N1CCC[C@H]1C(=O)N1CCC[C@H]1C(=O)N1CCC[C@H]1C(=O)N[C@@H](CCC(=O)O)C(N)=O` [Example 445] (H-Y[Aib]QGT[αMePhe(2-F)]TSD[4Pal]SI[αMeL]LDKK([AEEA-γGlu-C18 diacid])AQ[Aib]AFIEYLEEGGPSSGAPPPE-NH2), the 50% effective concentration (EC50) stood at 448 nM in test [1]; 10.1 nM in test [2]; 0.731 nM in test [3]; 0.0206 nM in test [4]; 23.2 nM in test [5]; 2.41 nM in test [6].

In the case of “H-Y[Aib]QGT[αMePhe(2-F)]TSD[4Pal]SILLDKK([γGlu-γGlu-C18 diacid])AQ[Aib]AFIEYLQEGGPSSGAPPPSGTE-NH2 [Example 553]”, the EC50 in test [1] was 523 nM; in test [2], 4.53 nM; in test [3], 0.398 nM; in test [4], 0.0371 nM; in test [5], 51 nM; in test [6], 2.97 nM.

For the compound “Y[Aib]QGT[αMePhe(2-F)]TSD[4Pal][αMeS]I[αMeL]LD[Orn]K([γGlu-γGlu-C18 diacid])AQ[Aib][Orn]FI[dE][αMeY]LTEGGPSSGEPPPEGTEE-NH2 [Example 597]”, the EC50 amounted to 329 nM in test [1]; 5.2 nM in test [2]; 0.6 nM in test [3]; 0.0643 nM in test [4]; 36.4 nM in test [5]; 2.38 nM in test [6].

Take “H-Y[Aib]QGT[αMePhe(2-F)]TSD[4Pal][αMeS]I[αMeL]LD[Orn]K([γGlu-γGlu-C18 diacid])AQ[Aib][Orn]FI[dE][αMeY]LAEGGPSSGEPPPSGAEE-NH2 [Example 591]”: the EC50 in test [1] is 234 nM; in test [2], 4.67 nM; in test [3], 0.773 nM; in test [4], 0.0579 nM; in test [5] it was 44.5 nM; in test [6] it was 3 nM.

Regarding “Y[Aib]QGTFTSD[4Pal]SQ[αMeL]LD[Orn]K([γGlu-γGlu-C18 diacid])AQ[αMe4Pal]AFIEYLIAGGPSSGAPPPSGSEE-NH2 [Example 1031]”, the concentration giving a half-maximal response (EC50) stood at 1200 nM in test [1]; 6.98 nM in test [2] (setting [8]); 1.15 nM in test [3] (setting [8]); 0.146 nM in test [4] (setting [8]); 152 nM in test [5]; 17.3 nM in test [6].

For the compound “H-Y[Aib]QGTFTSDFS[Orn][αMeL]LDKK([AEEA-γGlu-C18 diacid])AQ[Aib]AFIEYLLE[Aib]GESSGAPPPSGS-NH2 [Example 240]”, the EC50 in test [1] is 521 nM; in test [2] (setting [8]), 2.02 nM; in test [3] (setting [8]) it was 3.62 nM; in test [4] (setting [8]), 0.214 nM; in test [5] it was 396 nM; in test [6], 10.4 nM.

On to “H-Y[Aib]QGTFTSDFSK[αMeL]LDKK([AEEA-γGlu-C18 diacid])AQ[Aib]AFIEYLIE[Aib]SPSSGAPPPSGS-NH2 [Example 805]”, for which the EC50 in test [1] worked out at 1210 nM; in test [2] (setting [8]) it was 3.97 nM; in test [3] (setting [8]), 0.715 nM; in test [4] (setting [8]) it was 0.0875 nM; in test [5], 146 nM; in test [6], 13 nM.

Usually EC50 stands for the midpoint of the concentration-response curve.

The values are drawn from patent US20240270821A1, “GIP/GLP1/GCG TRI-RECEPTOR AGONISTS AND USES THEREOF” (priority 2023, published 2024).
